From US7109175B1, “Specific steady-state R-type CA2+ channel blockers and use thereof” (Universite de Sherbrooke, priority 2000, dated 2006)
Entries after “also recorded” stand apart in the source; their conditions may differ.

How the values were obtained:
[1] = test system: vascular permeability in the rat skin; assay: Bradykinin-induced skin vascular permeability in rats; assay type: in vivo; details: for increase of vascular permeability caused by bradykinin: MV 8612 8 and 16, MV 8608 27 and 54, i.p.
Description: To assess further the anti-inflammatory action of MV 8612 and MV 8608, their effects against the inflammatory responses caused by several mediators of inflammation in a murine model of pleurisy were tested (Saleh et al., 1996, Br. J. Pharmacol. 118:811–819). In addition, both compounds were tested against the increase of vascular permeability caused by bradykinin in the rat skin (Neves et al., 1993b, Phytotherapy Research. 7:356–362).

[2] = test system: human aortic vascular smooth muscle cell line; assay: Spontaneous proliferation of human aortic vascular smooth muscle cell line; assay type: cell-based; details: 10^−8M
R-type Ca^2+ channel [3] = assay: Confocal Fluo-3 3-dimension measurement of [Ca]c and [Ca]n, chick heart cells and human aortic VSM cell line; assay type: cell-based; details: for sustained increase of [Ca]c and [Ca]n induced by high PAF: PAF 10^−7M; for sustained depolarization induced sustained increase of [Ca]c and [Ca]n: heart cells, FIG. 29 panel A; for prevention of sustained increase of [Ca]c and [Ca]n: chick heart cells and human aortic VSM cell line
R-type Ca^2+ channel [4] = assay: Fura-2 [Ca]i, embryonic chick heart cells; assay type: cell-based; details: 10^−9M, sustained depolarization (KCl 30 mM), PAF 10^−9M, ET-1 10^−9M
Source text: (§1) This sustained increase of Ca^2+ induced by depolarization of the cell membrane or hormones such as PAF, ET-1 and bradykinin is due to the increase of Ca^2+ influx through the R-type Ca^2+ channels at the sarcolemmal membrane and/or the nuclear membrane (Bkaily G., 1994, supra; 1996, supra; 1997a–d, supra). Using Ca^2+ fluorescence probes Fura-2 or Fluo-3 and 2 and three-dimension Ca^2+ imaging techniques (Bkaily G., 1994, supra; 1996, supra; 1997a–d, supra), the effect of hormones and drugs could be easily tested. These two methods are used with single cells of different types as described above.
(§2) In another series of experiments we tested the effect of MV8608 (10^−9M) on R-type Ca^2+ channels stimulation-induced sustained increase of total intracellular Ca^2+ by sustained depolarization (FIGS. 15 to 19), by PAF (10^−9M) (FIGS. 16 to 19 and 21 to 22), by ET-1 (10^−9M) (FIGS. 16 and 19) and bradykinin (BK, 10^−6M) (FIGS. 20 and 21), in embryonic chick heart cells (FIGS. 15, 16, 19 and 20), 19-week-old human fetal heart cells (FIGS. 15, 17, 18 and 20), rabbit aortic vascular smooth muscle (VSM) cells (FIGS. 20 and 21), human aortic VSM cell-line (FIG. 23) and freshly isolated (FIG. 22) as well as in freshly isolated aortic endothelial cells (FIG. 22). […]

[5] = test system: human lymphocyte proliferation; assay: Human lymphocyte proliferation in vitro; assay type: cell-based; details: for inhibition of human lymphocyte proliferation: MV 8612 0.02 to 0.32 M, MV 8608 14.5 to 116 M
Description: In a separate series of experiments, compounds MV 8612 and MV 8608 were tested to analyze whether they interfered with human lymphocyte proliferation “in vitro”. These experiments were carried out as reported previously (Moraes et al., 1996, Eur. J. Pharmacol. 312:333–339).

[6] = test system: writhing response in mice; assay: Writhing response in mice (acetic acid, acetylcholine, kaolin); assay type: in vivo; details: for acetic acid, acetylcholine and kaolin-induced writhing response: MV 8612 0.25 to 2.5, MV 8608 2.7, i.p., 30 min prior
Source text: The antinociceptive actions of compound MV 8612 and MV 8608 were investigated in different models of nociception in mice as reported previously (Vaz et al., 1996, J. Pharmacol. Exp. Ther. 278:304–312).

R-type Ca^2+ channel [7] = assay: Fura-2 [Ca]i, human aortic vascular smooth muscle cells (cell line and freshly isolated); assay type: cell-based; details: for sustained increase of [Ca]i induced by high PAF: PAF 10^−7M
Source text: as §1
In another series of experiments we tested the effect of MV8608 (10^−9M) on R-type Ca^2+ channels stimulation-induced sustained increase of total intracellular Ca^2+ by sustained depolarization (FIGS. 15 to 19), by PAF (10^−9M) (FIGS. 16 to 19 and 21 to 22), by ET-1 (10^−9M) (FIGS. 16 and 19) and bradykinin (BK, 10^−6M) (FIGS. 20 and 21), in embryonic chick heart cells (FIGS. 15, 16, 19 and 20), 19-week-old human fetal heart cells (FIGS. 15, 17, 18 and 20), rabbit aortic vascular smooth muscle (VSM) cells (FIGS. 20 and 21), human aortic VSM cell-line (FIG. 23) and freshly isolated (FIG. 22) as well as in freshly isolated aortic endothelial cells (FIG. 22).
In some experiments, the stimulation of the R-type Ca^2+ channel was elevated by increasing the concentration of PAF from 10^−9M up to 10^−7. […] Only a concentration of 10^−6M of MV8608 was able to block the high PAF effect on the sustained increase of [Ca]i (FIG. 23).
Using Fura-2 [Ca]i measurement technique, in one series of experiments we tested the effect of MV8612 (10^−9M) on the stimulation of R-type Ca^2+-induced sustained increase of [Ca]i by sustained depolarization (FIGS. 26 and 27), PAF (10^−9M, FIG. 34) and ET-1 (FIGS. 33 and 34).

R-type Ca^2+ channel [8] = assay: Fura-2 [Ca]i, rabbit aortic vascular smooth muscle cells; assay type: cell-based; details: 10^−9M
Source text: as §1, §2

mouse paw oedema = assay: Mouse paw oedema; assay type: in vivo, mice
Description: In this experiment (N=5 to 6 animals per group), the anti-oedemagenic action of compounds MV 8608 and MV 8612 against bradykinin and several mediators which are reported to be involved in the inflammatory processes, was evaluated. The procedures used to perform these experiments have been reported elsewhere (Neves et al., 1993, Eur. J. Pharmacol. 243:213–219; Campos et al., 1995, Br. J. Pharmacol. 114:1005–1013; Campos et al., 1996, Br. J. Pharmacol. 117:793–798; Eur. J. Pharmacol. 316:227–286). […] As reported previously, in rats treated […] prior to a systemic injection of LPS, both B1 and B2 kinin selective agonists caused marked oedema formation (FIGS. 37C and D (Campos et al., 1996, supra)).
When tested in mice, MV 8612 (40 to 160 nmol/paw) inhibited bradykinin and carrageenan-induced paw oedema in mice in a dose-dependent manner (FIGS. 46A and B).

[9] = sustained depolarization and PAF 10^−7M
[10] = 40 to 160 nmol/paw co-injection

C[C@]12CC[C@H](O)CC1=CC[C@@H]1[C@@H]2CC[C@]2(C)[C@H]3[C@@H]4OC[C@H]3O[C@@H](O)[C@]12O4 [MV8608, (15R, 16R, 20S)-14, 16:15,20:16,21-triepoxi-15,16-seco 14β, 17α-pregn-5-ene-3β, 15-diol]
increase of vascular permeability caused by bradykinin [1]: antagonised in a dose-related manner | spontaneous proliferation [2]: significantly decreased | cytosolic and nuclear Ca2+ sustained overload (R-type Ca^2+ channel [3]; 10^−7M, KCl 30 mM and PAF, nifedipine present): blocked both the cytosolic and nuclear Ca^2+ sustained overload | prevention of depolarization-induced stimulation of R-type channel ([Ca]c, [Ca]n) (R-type Ca^2+ channel [3]; 10^−8 M and 10^−7 M): prevented the stimulation of the R-type Ca^2+ channel | prevention of high PAF action (R-type Ca^2+ channel [3]; PAF 10^−7 M, 10^−9M): succeeded in preventing the high PAF action | sustained increase of [Ca]c and [Ca]n induced by high PAF (R-type Ca^2+ channel [3]; MV8608 10^−6M): significantly decrease; also recorded: blocked | sustained depolarization induced sustained increase of [Ca]c and [Ca]n (R-type Ca^2+ channel [3]): blocked completely | prevention of sustained increase of [Ca]c and [Ca]n (R-type Ca^2+ channel [3]; [9]): preventive effect | sustained increase of [Ca]i (R-type Ca^2+ channel [4]): blockade | inhibition of human lymphocyte proliferation [5]: graded inhibition | acetic acid, acetylcholine and kaolin-induced writhing response [6]: only partial or even no antinociceptive action | PAF induced sustained increase of [Ca]i (R-type Ca^2+ channel [7]; 10^−9M, PAF 10^−9M, freshly isolated human aortic VSM cells): blockade | sustained increase of [Ca]i induced by high PAF (R-type Ca^2+ channel [7]; MV8608 10^−6M, human aortic VSM cell line): able to block; also recorded: blockade | sustained increase of [Ca]i induced by high PAF (R-type Ca^2+ channel [7]; MV8608 10^−9M): failed to significantly decrease | sustained increase of [Ca]i (R-type Ca^2+ channel [8]; BK 10^−6M and PAF 10^−9M): blockade | histamine-induced paw oedema (mouse paw oedema; 7.5 and 15, i.p.): dose-related inhibition | serotonin-induced paw oedema (mouse paw oedema; 7.5 and 15, i.p.): dose-related inhibition | bradykinin-induced paw oedema (mouse paw oedema; 7.5 and 15, i.p., 30 min prior): unaffected

COC1CC(OC2C(C)OC(O[C@H]3CC[C@@]4(C)C(=CC[C@@H]5[C@@H]4CC[C@]4(C)[C@H]6[C@@H]7OC[C@H]6O[C@@H](O)[C@]54O7)C3)CC2OC)OC(C)C1OC1CC(OC)C(OC2CC(OC)C(OC3OC(C)C(OC(C)=O)C(OC)C3OC(C)=O)C(C)O2)C(C)O1 (some centres unmarked) [MV8612]
increase of vascular permeability caused by bradykinin [1]: antagonised in a dose-related manner | activity against bradykinin vascular permeability, comparison ([1]; MV 8612 versus MV 8608): more active than MV 8608 | spontaneous proliferation [2]: significantly decreased | sustained increase of [Ca]c and [Ca]n induced by high PAF (R-type Ca^2+ channel [3]; MV8612 10^−8M): blocked | sustained depolarization induced sustained increase of [Ca]c and [Ca]n (R-type Ca^2+ channel [3]): blocked completely | potency of blocking sustained increase of [Ca]c and [Ca]n, comparison (R-type Ca^2+ channel [3]; [9]): more potent blocker than MV8608 | potency of preventing stimulation of R-type channel, comparison (R-type Ca^2+ channel [3]; [9]): equipotent in preventing | prevention of sustained increase of [Ca]c and [Ca]n (R-type Ca^2+ channel [3]; [9]): preventive effect | sustained increase of [Ca]i (R-type Ca^2+ channel [4]): blockade | inhibition of human lymphocyte proliferation [5]: graded inhibition | potency ratio MV 8612 versus MV 8608, lymphocyte proliferation ([5]; more potent): about 570 fold | acetic acid, acetylcholine and kaolin-induced writhing response [6]: dose-dependent inhibition | acetic acid-induced writhes, i.c.v. ([6]; MV 8612 4.2 to 42 nmol/site, morphine 0.26 to 13 nmol/site): dose-related antinociception | ID50 ACETIC ACID ([6]; i.p., mice, acetic acid-induced writhes): 2.4 (1.9–2.6) μmol/kg | ID50 ACETYLCHOLINE ([6]; i.p., mice, acetylcholine-induced writhes): 2.2 (2.0–2.3) μmol/kg | ID50 KAOLIN ([6]; i.p., mice, kaolin-induced writhes): 0.4 (0.3–0.6) μmol/kg | potency versus morphine, i.c.v., acetic acid-induced writhes ([6]; less potent than morphine): about 12 fold | potency against kaolin-induced pain versus the other writhing models ([6]; more potent): about 2 fold | potency versus morphine and indomethacin, kaolin-induced writhes ([6]; more potent): about 2 fold | prevention of sustained increase of [Ca]i (R-type Ca^2+ channel [7]; 10^−8M, KCl 30 mM and PAF 10^−7M, human aortic VSM cell line): found to prevent; also recorded: preventive effect | sustained increase of [Ca]i (R-type Ca^2+ channel [8]; sustained depolarization and ET-1 10^−9M): blockade | histamine-induced paw oedema (mouse paw oedema; 7.5 and 15, i.p.): no significant effect | serotonin-induced paw oedema (mouse paw oedema; 7.5 and 15, i.p.): no significant effect | bradykinin-induced paw oedema (mouse paw oedema; 7.5 and 15, i.p., 30 min prior): dose-dependent inhibition | cellulose sulphate-induced paw oedema (mouse paw oedema; 7.5 and 15, i.p., 30 min prior): dose-dependent inhibition | PAF-acether-induced oedema (mouse paw oedema; 40 to 160 nmol/paw): failed to affect significantly | serotonin-induced oedema (mouse paw oedema; 40 to 160 nmol/paw): failed to affect significantly | bradykinin-induced paw oedema (mouse paw oedema; [10]): inhibited | carrageenan-induced paw oedema (mouse paw oedema; [10]): inhibited
